# Measurements from PubChem BioAssay (NCI).
#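 96-well plates; 48 h exposure; 5 concentrations. Endpoints by linear interpolation between flanking doses. Not reached: highest tested concentration assigned. GI50 is the concentration that inhibits growth by half. TGI marks complete inhibition of growth.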
# Columns and labels:
# Assay in all cases: inhibition of tumour cell growth, NCI panel, 48 h
# SNB-75 CNS = tested on: SNB-75 CNS
# OVCAR-5 ovarian = tested on: OVCAR-5 ovarian
# OVCAR-4 ovarian = tested on: OVCAR-4 ovarian
# OVCAR-8 ovarian = tested on: OVCAR-8 ovarian
# T-47D breast = tested on: T-47D breast
# K-562 leukemia = tested on: K-562 leukemia
# SK-OV-3 ovarian = tested on: SK-OV-3 ovarian
# HL-60(TB) leukemia = tested on: HL-60(TB) leukemia
# HCT-15 colon = tested on: HCT-15 colon
# UACC-257 melanoma = tested on: UACC-257 melanoma
# EKVX NSCLC = tested on: EKVX NSCLC
# NCI/ADR-RES ovarian = tested on: NCI/ADR-RES ovarian
# KM12 colon = tested on: KM12 colon
# ACHN renal = tested on: ACHN renal
# HCC-2998 colon = tested on: HCC-2998 colon
# SF-295 CNS = tested on: SF-295 CNS
# HOP-62 NSCLC = tested on: HOP-62 NSCLC
# CAKI-1 renal = tested on: CAKI-1 renal
# PC-3 prostate = tested on: PC-3 prostate
# SNB-19 CNS = tested on: SNB-19 CNS
# MCF7 breast = tested on: MCF7 breast
# SF-268 CNS = tested on: SF-268 CNS
# NCI-H226 lung = tested on: NCI-H226 lung
# MOLT-4 leukemia = tested on: MOLT-4 leukemia
# MALME-3M melanoma = tested on: MALME-3M melanoma
# HCT-116 colon = tested on: HCT-116 colon
# CCRF-CEM leukemia = tested on: CCRF-CEM leukemia
# TK-10 renal = tested on: TK-10 renal
# NCI-H460 lung = tested on: NCI-H460 lung
# SK-MEL-28 melanoma = tested on: SK-MEL-28 melanoma
# LOX IMVI melanoma = tested on: LOX IMVI melanoma
# A549 NSCLC = tested on: A549 NSCLC
# HOP-92 NSCLC = tested on: HOP-92 NSCLC
# NCI-H23 lung = tested on: NCI-H23 lung
# BT-549 breast = tested on: BT-549 breast
# MDA-MB-435 = tested on: MDA-MB-435
# SF-539 CNS = tested on: SF-539 CNS
# RXF 393 renal = tested on: RXF 393 renal
# U251 CNS = tested on: U251 CNS
# RPMI-8226 leukemia = tested on: RPMI-8226 leukemia
# SW-620 colon = tested on: SW-620 colon
# HS 578T breast = tested on: HS 578T breast
# SK-MEL-2 melanoma = tested on: SK-MEL-2 melanoma
# M14 melanoma = tested on: M14 melanoma
# SR leukemia = tested on: SR leukemia
# DU-145 prostate = tested on: DU-145 prostate
# MDA-MB-231 breast = tested on: MDA-MB-231 breast
# UO-31 renal = tested on: UO-31 renal
# COLO 205 colon = tested on: COLO 205 colon
# UACC-62 melanoma = tested on: UACC-62 melanoma
# HT29 colon = tested on: HT29 colon
# A498 renal = tested on: A498 renal
# SN12C renal = tested on: SN12C renal
# NCI-H522 lung = tested on: NCI-H522 lung
# 786-0 renal = tested on: 786-0 renal
# SK-MEL-5 melanoma = tested on: SK-MEL-5 melanoma
# IGROV1 ovarian = tested on: IGROV1 ovarian
smiles,measurement,setting,value
CN1CCN(Cc2ccc(NC(=O)c3cncc(C#Cc4cnc5ccc(OCC6(C)COC6)nn45)c3)cc2C(F)(F)F)CC1,GI50,SNB-75 CNS,128 nM
same,TGI,SNB-75 CNS,357 nM
same,GI50,OVCAR-5 ovarian,172 nM
same,TGI,OVCAR-5 ovarian,609 nM
same,GI50,OVCAR-4 ovarian,135 nM
same,TGI,OVCAR-4 ovarian,757 nM
same,GI50,OVCAR-8 ovarian,157 nM
same,TGI,OVCAR-8 ovarian,547 nM
same,GI50,T-47D breast,279 nM
same,TGI,T-47D breast,1150 nM
same,GI50,K-562 leukemia,5 nM
same,TGI,K-562 leukemia,50000 nM
same,GI50,SK-OV-3 ovarian,233 nM
same,TGI,SK-OV-3 ovarian,747 nM
same,GI50,HL-60(TB) leukemia,190 nM
same,TGI,HL-60(TB) leukemia,604 nM
same,GI50,HCT-15 colon,123 nM
same,TGI,HCT-15 colon,408 nM
same,GI50,UACC-257 melanoma,228 nM
same,TGI,UACC-257 melanoma,829 nM
same,GI50,EKVX NSCLC,152 nM
same,TGI,EKVX NSCLC,641 nM
same,GI50,NCI/ADR-RES ovarian,163 nM
same,TGI,NCI/ADR-RES ovarian,580 nM
same,GI50,KM12 colon,5 nM
same,TGI,KM12 colon,352 nM
same,GI50,ACHN renal,108 nM
same,TGI,ACHN renal,465 nM
same,GI50,HCC-2998 colon,199 nM
same,TGI,HCC-2998 colon,656 nM
same,GI50,SF-295 CNS,440 nM
same,TGI,SF-295 CNS,1070 nM
same,GI50,HOP-62 NSCLC,156 nM
same,TGI,HOP-62 NSCLC,518 nM
same,GI50,CAKI-1 renal,87.8 nM
same,TGI,CAKI-1 renal,254 nM
same,GI50,PC-3 prostate,218 nM
same,TGI,PC-3 prostate,830 nM
same,GI50,SNB-19 CNS,200 nM
same,TGI,SNB-19 CNS,668 nM
same,GI50,MCF7 breast,86 nM
same,TGI,MCF7 breast,525 nM
same,GI50,SF-268 CNS,117 nM
same,TGI,SF-268 CNS,333 nM
same,GI50,NCI-H226 lung,98.5 nM
same,TGI,NCI-H226 lung,975 nM
same,GI50,MOLT-4 leukemia,145 nM
same,TGI,MOLT-4 leukemia,16500 nM
same,GI50,MALME-3M melanoma,89 nM
same,TGI,MALME-3M melanoma,303 nM
same,GI50,HCT-116 colon,125 nM
same,TGI,HCT-116 colon,476 nM
same,GI50,CCRF-CEM leukemia,165 nM
same,TGI,CCRF-CEM leukemia,15900 nM
same,GI50,TK-10 renal,149 nM
same,TGI,TK-10 renal,451 nM
same,GI50,NCI-H460 lung,194 nM
same,TGI,NCI-H460 lung,669 nM
same,GI50,SK-MEL-28 melanoma,167 nM
same,TGI,SK-MEL-28 melanoma,612 nM
same,GI50,LOX IMVI melanoma,107 nM
same,TGI,LOX IMVI melanoma,322 nM
same,GI50,A549 NSCLC,145 nM
same,TGI,A549 NSCLC,433 nM
same,GI50,HOP-92 NSCLC,59.5 nM
same,TGI,HOP-92 NSCLC,217 nM
same,GI50,NCI-H23 lung,134 nM
same,TGI,NCI-H23 lung,462 nM
same,GI50,BT-549 breast,320 nM
same,TGI,BT-549 breast,940 nM
same,GI50,MDA-MB-435,142 nM
same,TGI,MDA-MB-435,535 nM
same,GI50,SF-539 CNS,91.1 nM
same,TGI,SF-539 CNS,573 nM
same,GI50,RXF 393 renal,113 nM
same,TGI,RXF 393 renal,294 nM
same,GI50,U251 CNS,193 nM
same,TGI,U251 CNS,715 nM
same,GI50,RPMI-8226 leukemia,223 nM
same,TGI,RPMI-8226 leukemia,1440 nM
same,GI50,SW-620 colon,121 nM
same,TGI,SW-620 colon,317 nM
same,GI50,HS 578T breast,80.4 nM
same,TGI,HS 578T breast,321 nM
same,GI50,SK-MEL-2 melanoma,102 nM
same,TGI,SK-MEL-2 melanoma,218 nM
same,GI50,M14 melanoma,84.9 nM
same,TGI,M14 melanoma,218 nM
same,GI50,SR leukemia,140 nM
same,TGI,SR leukemia,1650 nM
same,GI50,DU-145 prostate,164 nM
same,TGI,DU-145 prostate,527 nM
same,GI50,MDA-MB-231 breast,73.1 nM
same,TGI,MDA-MB-231 breast,243 nM
same,GI50,UO-31 renal,130 nM
same,TGI,UO-31 renal,436 nM
same,GI50,COLO 205 colon,111 nM
same,TGI,COLO 205 colon,236 nM
same,GI50,UACC-62 melanoma,125 nM
same,TGI,UACC-62 melanoma,577 nM
same,GI50,HT29 colon,151 nM
same,TGI,HT29 colon,639 nM
same,GI50,A498 renal,142 nM
same,TGI,A498 renal,407 nM
same,GI50,SN12C renal,112 nM
same,TGI,SN12C renal,489 nM
same,GI50,NCI-H522 lung,96.7 nM
same,TGI,NCI-H522 lung,204 nM
same,GI50,786-0 renal,215 nM
same,TGI,786-0 renal,720 nM
same,GI50,SK-MEL-5 melanoma,642 nM
same,TGI,SK-MEL-5 melanoma,1280 nM
same,GI50,IGROV1 ovarian,105 nM
same,TGI,IGROV1 ovarian,437 nM
